Measurements as given in patent publication US12590954B2, “Neural stem cell-induced differential medium and induction differentiation method” (IREGENE THERAPEUTICS, CO., LTD., priority 2020, dated 2026).
Entries after “also recorded” stand apart in the source; their conditions may differ.

Columns and labels:
HLA-DR = experiment: Flow cytometry detection of HLA-DR antigens of induced neural stem cells; type: cell-based, human
Method: The HLA-DR antigens of neural stem cells induced by LY2157299 were detected by flow cytometry. HLA-DR is an MHC class II molecule whose expression is critical for the antigen-presenting function of cells and plays a key role in adoptive immune responses. The induced neural stem cells obtained in Example 2 were digested with EDTA, washed with DPBS, centrifuged to remove the supernatant, and 10^6 Cells were resuspended in 100 μL of diluted primary antibody (CD45 PerCP, Abeam, Cat. No. ab157309; HLA-DR FITC, CST, Cat. No. 54126), incubated on ice for 1 hour in the dark, centrifuged to remove supernatant, and cells were resuspended in 500 μL of antibody dilution buffer (CST) and analyzed on a flow cytometer. Samples incubated without primary antibody were used as controls. The results are shown in FIG. 7, FIG. 7a is a negative control, FIG. 7b is the HLA-DR detection result of the neural stem cells obtained by LY2157299 induction.

[1] = tested on: Human pluripotent stem cells; experiment: CyQuant quantitative detection of cell viability during induction; type: cell-based
Method: The Cyquant assay was used to perform the quantitative detection of cell viability, thus investigating the effect of LY2157299 on the physiological state of the cells during long-term culture of the cells; Among them, the LSB method was used as the control group. 96-well light-tight cell culture plates were coated; after the coating was complete, cells were seeded separately at 5×10^4 cell number per well and three sets of parallel replicates were set (the average of three sets was calculated as data) to repeat the procedure of example 2.1. Wherein, the culture procedures described previously were incubated at 37° C. with 5% CO2. Samples were taken on days 1, 5, 10, 15 and 20 for cell viability assay using CyQuant Kit (Invitrogen, cat. No: X12223). The aforementioned assay was operated according to the instructions with a Spectramax i3 Multi-Mode Microplate Reader (VWR, model number: ID3-STD) for data reading.

[2] = tested on: human induced pluripotent stem cells; experiment: Brain organoid formation and diameter; type: cell-based; settings: 12.5 μM LY2157299
Method: Organoid culture was performed with human induced pluripotent stem cells. Organoid inducing medium was formulated as follows: NouvNeu basal medium supplemented with 12.5 μM […]. Induced pluripotent stem cells were digested to single cells by Accutase, seeded in 15-bottom-ultra-low attachment 96-well plates at a ratio of 9000 cells/[…] of brain organoid inducing medium per well. 10 μM ROCK inhibitor Y-27632 (Selleck, 51049) was added, and the cells were placed in a 37° C., 5% carbon dioxide cell incubator for 24 hours (Panasonic, model: MCO-18AC). Y-27632-free fresh organoid inducing medium was changed the following day until day 10. Day 10 the organoids were transferred to ultra-low-attachment 6-well plates and the medium was changed to NouvNeu001 basal medium supplemented with 2% B27 cell culture additive. The culture was conducted at 37° C. in a 5% CO2 cell culture incubator on a horizontal rotator at 80 rpm until day 120.
The control experiment was carried out according to the published method (Clair B et. al, Nat Methods. 2019, November; 16 (11): 1169-1175). N2B27 was used as the basic medium for organ like culture. […]
Organoids were photographed by Leica Dmi8. The brain organoids were photographed and their diameters were measured. […]

neural stem cells [3] = experiment: Directed differentiation of induced neural stem cells into neurons (immunofluorescence); type: cell-based, human
Method: The neural stem cells obtained by the LY inducing method in Example 2 were subjected to directed differentiation in NouvNeu001 basal medium. For neuronal differentiation, use 50 μg/mL polylysine (SIGMA ALDRICH, Cat. No.: P6407) to coat a 6-well culture plate, and place the plate in a 37° C. incubator and incubate for more than 3 hours until cells are seeded.
The neural stem cells obtained in example 2 were seeded at a density of 1×10^5 the ratio per flask was inoculated in T25 flasks, and 3 μM CHIR99021 (Selleck, Cat. No.: S2924), 10 μM SU5402 (Tocris, Cat. No.: 3300/1), 10 μM DAPT (Selleck, Cat. No.: 52215) were added to NouvNeu001 basal medium. Fresh medium was replaced every 3 days until day 21. The above cultures were incubated at 37° C. with 5% CO2.
The neural stem cells obtained in example 2 were seeded at a density of 1×10^5 the ratio per flask was inoculated in T25 flasks, and 1 μM Purmorphamine Sellek, Cat. No.: S3042) and […] TGF-β3 (Novoprotein, Cat. No.: CJ44) were added to NouvNeu001 basal medium to culture neural stem cells. Fresh medium was replaced every 3 days until day 30. The above cultures were incubated at 37° C. with 5% CO2.
The neural stem cells obtained in example 2 were seeded at a density of 1×10^5 the ratio per flask was inoculated in T25 flasks, and 0.5 μM retinyl acetate (SIGMA ALDRICH, Cat. No.: R7782) was added to NouvNeu001 basal medium. Fresh medium was replaced every 3 days until day 21. The above cultures were incubated at 37° C. with 5% CO2.
After induction and differentiation, the cells were harvested and identified by immunofluorescence staining: cells were fixed with 4% paraformaldehyde at room temperature for 40 minutes, washed twice with DPBS buffer; then permeabilized with 0.1% Triton X-100 for 5 minutes, and buffered with DPBS The cells were then washed twice with DPBS buffer containing 10% horse serum and 0.1% Triton X-100 at 4° C. overnight; the cells were washed with DPBS buffer and then washed with 2% horse serum and 0:1% Triton X-100. […]

neural stem cells [4] = experiment: Q-PCR of marker genes during induction from pluripotent stem cells to neural stem cells; type: cell-based, human; settings: different concentrations of LY2157299
Method: Transcriptional changes of different marker genes during induction from pluripotent stem cells to neural stem cells were detected by using Q-PCR. The induced pluripotent stem cells used in this example are neural stem cells derived by LY inducing method and LSB inducing method, respectively. Neural stem cells were prepared as described previously using Rneasy Mini or Micro Kit (QIAGEN) for total RNA extraction, in which […] RNA was used to synthesize cDNA with superscript III First-Strand Synthesis System (Invitrogen).
SYBR Premix Ex Taq (TaKaRa) and Thermal Cycler Dice Real Time System TaKaRa) were used to perform labeling and reactions for Quantitative PCR, with beta-Actin as internal reference. All the above data were analyzed with the delta-Ct method. Each set of trials was tested using three sets of replicates, and variance statistics were performed.
(§1) From the above results, it is known that the differentiation is not complete under the low concentration condition, and many different types of cells can be seen. However, neural stem cells obtained in high concentration condition are easily differentiated and cell stress appears.

[5] = tested on: major histocompatibility complex (MHC) genes; experiment: Q-PCR detection of MHC genes of induced neural stem cells; type: cell-based; settings: compared with human pluripotent stem cells
Text: The major histocompatibility complex (MHC) genes of neural stem cells induced by LY2157299 was detected by Q-PCR method, and pluripotent stem cells (iPS) were used as control.

[6] = tested on: Human pluripotent stem cells; experiment: Chemical induction of neural stem cells (neural rosette formation, cell morphology); type: cell-based
Text: Human pluripotent stem cells include embryonic pluripotent stem cells, such as the H19 cell line and human induced pluripotent stem cells. Wherein, the human induced pluripotent stem cells used in the present invention are obtained from the reprogramming of CD34^+ cells, which refers to “reprogramming culture medium and reprogramming induced pluripotent stem cell culture method” (the method in the patent ZL201910050800.7).
Human pluripotent stem cells are used to coat T25 cell culture flasks with Matrigel ([…] Technologies), and then placed in a 37° C. incubator for more than one hour after plating. Follow 1×10^6 Cells were seeded in T25 flasks for expansion and passage.
For neural induction, use 50 μg/mL poly-lysine (SIGMA, Cat. No.: P6407) to coat a 6-well culture plate, and incubate at 37° C. for more than 3 hours after plating; then use 5 μg/mL Laminin (SIGMA ALDRICH, Cat. No.: 12020) for further coat, and then place in a 37° C. incubator to incubate for more than 3 hours. When pluripotent stem cells reached 70% coverage, they were digested with EDTA at 37° C. for 5 min, and DMEM was used to stop cell digestion. Cells are washed and centrifuged at 2×10^5 the proportions of each flask and are re-seeded in T25 plates. Neural induction is performed using the medium of the present invention in combination with the neural inducing compound, and the medium is changed every day until the neural stem cell rosette is formed. […] Therefore, the single-molecule inducing method provided by this method can induce pluripotent stem cells to form neural rosette structures more efficiently and uniformly.
as §1

[7] = Freezing point osmometer: osmolality of the culture system; type: physicochemical
Method: A fully automated freezing point osmometer (FM-8P, Shanghai Yida Instruments Co., Ltd.) was used to detect the effects of different concentrations of sodium chloride on the osmolality of the culture system, and the specific operations were enrolled in the product instructions (FM-8P, Shanghai Vida Instruments Co., Ltd.). The test results are detailed in FIG. 2a. […] However, when the concentration reached […], the osmolality of the culture system already exceeded the cell culture limit of 320 mOsm/kg.

Cc1cccc(-c2nn3c(c2-c2ccnc4ccc(C(N)=O)cc24)CCC3)n1 [LY2157299, 4-(2-(6-methylpyridin-2-yl)-5,6-dihydro-4h-pyrrolo[1,2-b]pyrazol-3-yl) quinoline-6-carboxamide]
HLA-DR antigen expression of induced neural stem cells (HLA-DR): do not express HLA-DR; also recorded: negative
number of neural cells induced (CyQuant) ([1]; samples on days 1, 5, 10, 15 and 20, LSB method as control): more number of neural cells compared with LSB method
generation of cerebral organoids [2]: can induce the generation of cerebral organoids
nociceptor neuron differentiation of induced neural stem cells: marker expression (neural stem cells [3]; CHIR99021, SU5402, DAPT in NouvNeu001 until day 21): able to express the nociceptor neuronal markers SCN11A and Nestin
dopaminergic neuron differentiation of induced neural stem cells: marker expression (neural stem cells [3]; Purmorphamine and TGF-β3 in NouvNeu001 until day 30): could express the mature dopaminergic neuron specific markers Tyrosine Hydroxylase (TH) and Pitx3
photoreceptor neuron differentiation of induced neural stem cells: marker expression (neural stem cells [3]; retinyl acetate in NouvNeu001 until day 21): could express the photoreceptor neuronal markers OPSIN and CRX
Pax6 expression versus concentration (Q-PCR) (neural stem cells [4]): positively correlated with Pax6 expression
apoptosis gene CASP3 versus concentration (Q-PCR) (neural stem cells [4]): positively correlated with apoptosis
expression of MHC associated genes in induced neural stem cells [5]: significantly lower than human induced pluripotent stem cells; also recorded: extremely low levels
cell population obtained by chemical induction ([6]; 12.5 μM LY2157299): a uniform cell population
cell population obtained by chemical induction ([6]; 25 μM LY2157299): a mixed population of neural cells was obtained
cell stress on chemical induction ([6]; 25 μM LY2157299): cells showed signs of stress with intracellular vacuoles
cell population obtained by chemical induction ([6]; 20 nm LY2157299): a mixed population of cells including neural cells was obtained

[Cl-].[Na+] [sodium chloride]
osmotic pressure of the culture system versus concentration ([7]; different concentrations of sodium chloride): linear increase
osmolality of the culture system ([7]; sodium chloride concentration 1 μg/mL): > 320 mOsm/kg

recombinant insulin: component of the basal medium
rate of cell proliferation versus concentration (CyQuant) ([1]; different concentrations, long-term culture): positively correlated with the rate of cell proliferation
